# Test system: cells of testes collected from mice (primary culture)
# Experiment: Test Example 1: testosterone secretion from primary culture of mouse testes cells, measured by EIA
# Format: cell-based, mice (ddY strain)
# Conditions: 2-hour culture
# Description: 2 mL of 50% ethanol was added to 4 mg/vial of compound K (trade name: Ginsenoside CK, 0150S, Extrasynthese S.A.) to dissolve compound K, and the obtained solution was suitably diluted with a DME/F-12 medium (Nacalai Tesque) containing 0.1% bovine serum albumin (BSA) (“0.1% BSA-DME/F-12”) to prepare a sample.
# Testes were collected from mice (ddY strain, male, 7 to 8 weeks old), and subjected to primary culture. Specifically, testes were subjected to collagenase treatment (Worthington, Type 2, 0.05%, 37° C., 15 minutes) to disperse cells, and adjusted to 3×10^5 cells/0.5 mL in a DME/F-12 medium containing 10% fetal bovine serum (FBS). The cells were then seeded into a 24-well plate, and cultured overnight. After culture, the cells were washed with PBS(−) (Dulbecco's PBS (0.2 g/L of potassium chloride, 0.2 g/L of monopotassium phosphate, 8 g/L of sodium chloride, 1.15 g/L of anhydrous disodium phosphate, pH of 7.4, an isotonic solution, ion content: (mEq)Na^+ 148, K^+ 4, Cl^− 139)). The prepared sample was then added to the cells to give a volume of 1/10, together with a 0.1% BSA-DME/F-12 medium, and the concentration of compound K in the wells was adjusted to 1 μg/mL, 10 μg/mL, and 100 μg/mL.
# A mixture solution of 50% ethanol and 0.1% BSA-DME/F-12 was prepared in place of the sample in the same manner as above, except that compound K was not added; this mixture was added to the cells to give a volume of 1/10 as above, thereby preparing a control (the concentration of compound K: 0 μg/mL).
# After 2-hour culture, the medium was collected, and the testosterone levels in the mediums were measured by enzyme immunoassay (EIA).
# Specifically, a goat anti-rabbit IgG antibody (2 μg/well) was added to a 96-well microplate (Nunc, Denmark), and the plate was coated at room temperature for 1 hour. After washing, a blocking agent (0.14M NaCl, 0.02% thimerosal, 1% BSA, 0.01M phosphate buffer, pH of 7.4) was added thereto to perform blocking at room temperature for 15 minutes. […] The absorbance at 490 nm was measured with a microplate reader to determine the testosterone secretion level.
compound,measurement,setting,value
"CC(C)=CCC[C@](C)(O[C@@H]1O[C@H](CO)[C@@H](O)[C@H](O)[C@H]1O)[C@H]1CC[C@]2(C)[C@@H]1[C@H](O)C[C@@H]1[C@@]3(C)CC[C@H](O)C(C)(C)[C@@H]3CC[C@]12C [compound K, 20(S)-protopanaxadiol 20-O-β-d-glucopyranoside (M1)]",testosterone level in a medium,"compound K 1 μg/mL, not shown in FIG. 1",increased testosterone level
same,testosterone level in a medium,"compound K 10 μg/mL, versus medium free from compound K (0 μg/mL), FIG. 1",higher
same,testosterone level in a medium,"compound K 100 μg/mL, versus medium free from compound K (0 μg/mL), FIG. 1",higher
